What follows are compounds tested against angiotensin converting enzyme (Homo sapiens, UniProt P12821) (assay: inhibition of the isolated angiotensin converting enzyme).
Format: biochemical
Source text: The following values were obtained for the inhibition of the isolated angiotensin converting enzyme: […]

Sequence of angiotensin converting enzyme (P12821 30-1306, species assumed): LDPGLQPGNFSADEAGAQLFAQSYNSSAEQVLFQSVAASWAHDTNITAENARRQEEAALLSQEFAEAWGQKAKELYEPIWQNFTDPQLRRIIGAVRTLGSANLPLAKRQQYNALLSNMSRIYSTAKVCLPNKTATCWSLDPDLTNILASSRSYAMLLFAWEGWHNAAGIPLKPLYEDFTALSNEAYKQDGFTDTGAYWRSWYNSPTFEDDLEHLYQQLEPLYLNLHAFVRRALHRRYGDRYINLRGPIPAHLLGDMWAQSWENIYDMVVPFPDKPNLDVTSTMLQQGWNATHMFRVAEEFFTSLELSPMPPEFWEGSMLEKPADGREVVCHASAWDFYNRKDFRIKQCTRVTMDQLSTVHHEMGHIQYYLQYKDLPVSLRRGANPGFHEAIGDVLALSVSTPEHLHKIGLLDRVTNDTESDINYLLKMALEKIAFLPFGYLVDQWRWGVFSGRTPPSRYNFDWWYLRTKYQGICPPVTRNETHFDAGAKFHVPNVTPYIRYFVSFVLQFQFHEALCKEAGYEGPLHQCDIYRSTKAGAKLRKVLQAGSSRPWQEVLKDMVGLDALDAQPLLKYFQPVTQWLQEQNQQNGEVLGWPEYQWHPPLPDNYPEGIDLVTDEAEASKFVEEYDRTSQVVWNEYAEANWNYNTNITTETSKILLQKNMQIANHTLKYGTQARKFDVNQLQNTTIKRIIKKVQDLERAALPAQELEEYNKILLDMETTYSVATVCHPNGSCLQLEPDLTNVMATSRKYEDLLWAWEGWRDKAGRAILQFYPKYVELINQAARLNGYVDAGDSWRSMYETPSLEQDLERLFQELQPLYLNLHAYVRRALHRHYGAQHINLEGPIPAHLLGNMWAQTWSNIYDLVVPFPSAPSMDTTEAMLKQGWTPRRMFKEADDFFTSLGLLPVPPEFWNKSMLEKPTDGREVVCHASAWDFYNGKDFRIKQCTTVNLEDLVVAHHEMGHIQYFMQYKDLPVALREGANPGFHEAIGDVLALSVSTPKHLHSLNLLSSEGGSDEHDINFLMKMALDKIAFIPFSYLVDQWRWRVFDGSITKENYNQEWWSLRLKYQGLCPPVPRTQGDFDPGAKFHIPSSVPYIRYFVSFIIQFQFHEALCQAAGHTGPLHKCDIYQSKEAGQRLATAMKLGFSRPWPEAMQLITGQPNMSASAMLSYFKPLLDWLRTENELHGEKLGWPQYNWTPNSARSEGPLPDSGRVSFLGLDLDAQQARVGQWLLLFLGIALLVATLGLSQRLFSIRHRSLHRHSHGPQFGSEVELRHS

First: NCCCC[C@H](N[C@@H](CCc1ccccc1)C(=O)O)C(=O)N1CCc2sccc2[C@H]1C(=O)O [Example 2, N-[N-(1(S)-Carboxy-3-phenylpropyl)-L-lysyl]4,5,6,7-tetrahydro-thieno[3,2-c]pyridine-4(S)-carboxylic acid]
Second: NCCCC[C@H](N[C@@H](CCc1ccccc1)C(=O)O)C(=O)N1CCc2ccsc2[C@@H]1C(=O)O [Example 4, N-[N-(1(S)-Carboxy-3-phenylpropyl)-L-lysyl]4,5,6,7-tetrahydro-thieno[2,3-c]pyridine-7(S)-carboxylic acid]
The IC50 of the first is 5.1-fold lower: 3.5 nM for the first, 18 nM for the second. The first is the more potent here.

Going from `NCCCC[C@H](N[C@@H](CCc1ccccc1)C(=O)O)C(=O)N1Cc2ccsc2C[C@H]1C(=O)O` [Example 10, N-[N-(1(S)-Carboxy-3-phenylpropyl)-L-lysyl]-4,5,6,7-tetrahydro-thieno[3,2-c]pyridine-6(S)-carboxylic acid] to `NCCCC[C@H](N[C@@H](CCc1ccccc1)C(=O)O)C(=O)N1Cc2sccc2C[C@H]1C(=O)O` [Example 7, N-[N-(1(S)-Carboxy-3-phenylpropyl)-L-lysyl]-4,5,6,7-tetrahydro-thieno[2,3-c]pyridine-5(S)-carboxylic acid], the IC50 rises from 2.9 nM to 14 nM (4.8-fold).

Source: US5008273A, “Amino acid derivatives and their pharmaceutical use” (Boehringer Ingelheim GmbH, priority 1985, dated 1991)
